Results published in ChEMBL document CHEMBL2380212, “Synthesis, single crystal and antitumor activities of benzimidazole-quinazoline hybrids” (Bioorg Med Chem Lett, 2013).

Assays:
[1] = test system: ACHN; assay: Cytotoxicity against human ACHN cells at 10 uM after 48 hrs by SRB assay; type: functional; conditions: read-out: GI
[2] = test system: U-251; assay: Cytotoxicity against human U251 cells at 10 uM after 48 hrs by SRB assay; type: functional; conditions: U-251, 48 h, read-out: GI
[3] = test system: OVCAR-8; assay: Cytotoxicity against human OVCAR8 cells at 10 uM after 48 hrs by SRB assay; type: functional; conditions: OVCAR-8, 48 h, read-out: GI
[4] = test system: OVCAR-3; assay: Cytotoxicity against human OVCAR3 cells at 10 uM after 48 hrs by SRB assay; type: functional; conditions: OVCAR-3, 48 h, read-out: GI
[5] = test system: SNB-75; assay: Cytotoxicity against human SNB75 cells at 10 uM after 48 hrs by SRB assay; type: functional; conditions: SNB-75, 48 h, read-out: GI
[6] = test system: Hs-578T; assay: Cytotoxicity against human Hs578T cells at 10 uM after 48 hrs by SRB assay; type: functional; conditions: read-out: GI
[7] = test system: IGROV-1; assay: Cytotoxicity against human IGROV1 cells at 10 uM after 48 hrs by SRB assay; type: functional; conditions: IGROV-1, 48 h, read-out: GI
[8] = test system: T47D; assay: Cytotoxicity against human T47D cells at 10 uM after 48 hrs by SRB assay; type: functional; conditions: read-out: GI
[9] = test system: TK-10; assay: Cytotoxicity against human TK10 cells at 10 uM after 48 hrs by SRB assay; type: functional; conditions: TK-10, 48 h, read-out: GI
[10] = test system: 786-0; assay: Cytotoxicity against human 786-0 cells at 10 uM after 48 hrs by SRB assay; type: functional; conditions: 786-0, 48 h, read-out: GI
[11] = test system: A549; assay: Cytotoxicity against human A549 cells at 10 uM after 48 hrs by SRB assay; type: functional; conditions: A549, 48 h, read-out: GI
[12] = test system: MDA-MB-468; assay: Cytotoxicity against human MDA-MB-468 cells at 10 uM after 48 hrs by SRB assay; type: functional; conditions: MDA-MB-468, 48 h, read-out: GI
[13] = test system: A498; assay: Cytotoxicity against human A498 cells at 10 uM after 48 hrs by SRB assay; type: functional; conditions: A498, 48 h, read-out: GI
[14] = test system: SK-MEL-28; assay: Cytotoxicity against human SK-MEL-28 cells at 10 uM after 48 hrs by SRB assay; type: functional; conditions: SK-MEL-28, 48 h, read-out: GI
[15] = test system: HL-60(TB); assay: Cytotoxicity against human HL-60(TB) cells at 10 uM after 48 hrs by SRB assay; type: functional; conditions: HL-60, 48 h, read-out: GI
[16] = test system: RXF 393; assay: Cytotoxicity against human RXF393 cells at 10 uM after 48 hrs by SRB assay; type: functional; conditions: RXF 393, 48 h, read-out: GI
[17] = test system: SK-OV-3; assay: Cytotoxicity against human SKOV3 cells at 10 uM after 48 hrs by SRB assay; type: functional; conditions: SK-OV-3, 48 h, read-out: GI
[18] = test system: NCI-H226; assay: Cytotoxicity against human NCI-H226 cells at 10 uM after 48 hrs by SRB assay; type: functional; conditions: NCI-H226, 48 h, read-out: GI
[19] = test system: OVCAR-5; assay: Cytotoxicity against human OVCAR5 cells at 10 uM after 48 hrs by SRB assay; type: functional; conditions: OVCAR-5, 48 h, read-out: GI
[20] = test system: DU-145; assay: Cytotoxicity against human DU145 cells at 10 uM after 48 hrs by SRB assay; type: functional; conditions: DU-145, 48 h, read-out: GI
[21] = test system: UACC-257; assay: Cytotoxicity against human UACC257 cells at 10 uM after 48 hrs by SRB assay; type: functional; conditions: UACC-257, 48 h, read-out: GI
[22] = test system: MCF7; assay: Cytotoxicity against human MCF7 cells at 10 uM after 48 hrs by SRB assay; type: functional; conditions: MCF7, 48 h, read-out: GI
[23] = test system: HOP-62; assay: Cytotoxicity against human HOP62 cells at 10 uM after 48 hrs by SRB assay; type: functional; conditions: HOP-62, 48 h, read-out: GI
[24] = test system: BT-549; assay: Cytotoxicity against human BT549 cells at 10 uM after 48 hrs by SRB assay; type: functional; conditions: BT-549, 48 h, read-out: GI
[25] = test system: MDA-MB-231; assay: Cytotoxicity against human MDA-MB-231 cells at 10 uM after 48 hrs by SRB assay; type: functional; conditions: MDA-MB-231, 48 h, read-out: GI
[26] = test system: HCT-15; assay: Cytotoxicity against human HCT15 cells at 10 uM after 48 hrs by SRB assay; type: functional; conditions: HCT-15, 48 h, read-out: GI
[27] = test system: SF-295; assay: Cytotoxicity against human SF295 cells at 10 uM after 48 hrs by SRB assay; type: functional; conditions: SF-295, 48 h, read-out: GI
[28] = n-Octanol-phosphate buffer partition coefficient, log P of the compound at pH 7.4 by shake flask method; type: physicochemical
[29] = test system: UO-31; assay: Cytotoxicity against human UO31 cells at 10 uM after 48 hrs by SRB assay; type: functional; conditions: UO-31, 48 h, read-out: GI
[30] = test system: HCC 2998; assay: Cytotoxicity against human HCC2998 cells at 10 uM after 48 hrs by SRB assay; type: functional; conditions: HCC 2998, 48 h, read-out: GI
[31] = test system: HCT-116; assay: Cytotoxicity against human HCT116 cells at 10 uM after 48 hrs by SRB assay; type: functional; conditions: HCT-116, 48 h, read-out: GI
[32] = test system: K562; assay: Cytotoxicity against human K562 cells at 10 uM after 48 hrs by SRB assay; type: functional; conditions: K562, 48 h, read-out: GI
[33] = test system: NCI/ADR-RES; assay: Cytotoxicity against human NCI/ADR-RES cells at 10 uM after 48 hrs by SRB assay; type: functional; conditions: read-out: GI
[34] = test system: MDA-MB-435; assay: Cytotoxicity against human MDA-MB-435 cells at 10 uM after 48 hrs by SRB assay; type: functional; conditions: MDA-MB-435, 48 h, read-out: GI
[35] = test system: SN12C; assay: Cytotoxicity against human SN12C cells at 10 uM after 48 hrs by SRB assay; type: functional; conditions: read-out: GI
[36] = test system: NCI-H460; assay: Cytotoxicity against human NCI-H460 cells at 10 uM after 48 hrs by SRB assay; type: functional; conditions: NCI-H460, 48 h, read-out: GI
[37] = test system: SK-MEL-5; assay: Cytotoxicity against human SK-MEL-5 cells at 10 uM after 48 hrs by SRB assay; type: functional; conditions: SK-MEL-5, 48 h, read-out: GI
[38] = test system: SF-268; assay: Cytotoxicity against human SF268 cells at 10 uM after 48 hrs by SRB assay; type: functional; conditions: SF-268, 48 h, read-out: GI
[39] = test system: PC-3; assay: Cytotoxicity against human PC3 cells at 10 uM after 48 hrs by SRB assay; type: functional; conditions: PC-3, 48 h, read-out: GI
[40] = test system: SF-539; assay: Cytotoxicity against human SF539 cells at 10 uM after 48 hrs by SRB assay; type: functional; conditions: SF-539, 48 h, read-out: GI
[41] = test system: SK-MEL-2; assay: Cytotoxicity against human SK-MEL-2 cells at 10 uM after 48 hrs by SRB assay; type: functional; conditions: SK-MEL-2, 48 h, read-out: GI

C=CCn1c(C)nc2ccc(Nc3nc(N4CCN(C)CC4)nc4ccccc34)cc21 gave an inhibition of growth at 10 µM [1] of less than 10%, an inhibition of growth at 10 µM [2] of 10.2% and an inhibition of growth at 10 µM [3] of 23.4%. The inhibition of growth at 10 µM [4] was less than 10%, the inhibition of growth at 10 µM [5] was 17.6% and the inhibition of growth at 10 µM [6] was 23.3%. The inhibition of growth at 10 µM [7] was less than 10%, the inhibition of growth at 10 µM [8] was 20.6% and the inhibition of growth at 10 µM [9] was less than 10%. For the same compound, the inhibition of growth at 10 µM [10] was less than 10%, the inhibition of growth at 10 µM [11] was less than 10% and the inhibition of growth at 10 µM [12] was less than 10%. It also gave an inhibition of growth at 10 µM [13] of less than 10%, an inhibition of growth at 10 µM [14] of less than 10% and an inhibition of growth at 10 µM [15] of less than 10%. For the same compound, the inhibition of growth at 10 µM [16] was less than 10%, the inhibition of growth at 10 µM [17] was less than 10% and the inhibition of growth at 10 µM [18] was 13.6%. It also gave an inhibition of growth at 10 µM [19] of 16.5%, an inhibition of growth at 10 µM [20] of less than 10% and an inhibition of growth at 10 µM [21] of less than 10%. The inhibition of growth at 10 µM [22] was 14.4%, the inhibition of growth at 10 µM [23] was 11.3% and the inhibition of growth at 10 µM [24] was 20.7%. For the same compound, the inhibition of growth at 10 µM [25] was 22.8%, the inhibition of growth at 10 µM [26] was 10.1% and the inhibition of growth at 10 µM [27] was less than 10%. The logD [28] was 1.03, the inhibition of growth at 10 µM [29] was 34.2% and the inhibition of growth at 10 µM [30] was less than 10%. For the same compound, the inhibition of growth at 10 µM [31] was 33%, the inhibition of growth at 10 µM [32] was 37.8% and the inhibition of growth at 10 µM [33] was less than 10%. The inhibition of growth at 10 µM [34] was less than 10%, the inhibition of growth at 10 µM [35] was less than 10% and the inhibition of growth at 10 µM [36] was less than 10%. The inhibition of growth at 10 µM [37] was 18.3%, the inhibition of growth at 10 µM [38] was less than 10% and the inhibition of growth at 10 µM [39] was 25.9%. It also gave an inhibition of growth at 10 µM [40] of 23.5% and an inhibition of growth at 10 µM [41] of less than 10%.
